ChEMBL document CHEMBL1201862, “PubChem BioAssay data set” (2004)
Each block holds one molecule with its values, some of them ahead of it. Calls of active or inactive are those of the source.

Experiments:
[1] = target: Dual specificity protein phosphatase 3 (Homo sapiens, UniProt P51452); test: VHR phosphatase inhibition, dose response, selectivity assay for STEP inhibitor project, biochemical (AID 602374); format: functional; settings: read-out: IC50_Mean
[2] = target: Tyrosine-protein phosphatase non-receptor type 5 (Homo sapiens, UniProt P54829); test: PTPN5 enzyme inhibition – biochemical, fluorescence intensity, uHTS hits, confirmation (AID 602372); format: functional; settings: read-out: IC50_Mean
[3] = target: Tyrosine-protein phosphatase non-receptor type 11 (Homo sapiens, UniProt Q06124); test: PTPN11 enzyme inhibitors – biochemical, selectivity assay for STEP inhibitor project, dose response (AID 602367); format: functional; settings: read-out: IC50_Mean
[4] = target: Potassium voltage-gated channel subfamily KQT member 2 (Rattus norvegicus, UniProt O88943); test: blockers of KCNQ2 channel current – cell-based, automated electrophysiology, set II, rat KCNQ2, dose response (AID 588637); format: functional
[5] = inhibition of ARNT PAS-B/TACC3 complex formation – biochemical, AlphaScreen, cherry-picked samples, confirmation (AID 651703); format: functional, Homo sapiens;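 note: His-tagged ARNT PAS-B domain paired with GST-TACC3 E629A dimer coactivator fragment; potency of inhibitors that break up the complex and lower AlphaScreen signal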
[6] = target: T1, Mitochondrial peptide methionine sulfoxide reductase (Bos taurus, UniProt P54149); test: Absorbance-based biochemical high throughput dose response assay for activators of Methionine sulfoxide reductase A (MsrA).; format: functional
T1 sequence (P54149 whole entry): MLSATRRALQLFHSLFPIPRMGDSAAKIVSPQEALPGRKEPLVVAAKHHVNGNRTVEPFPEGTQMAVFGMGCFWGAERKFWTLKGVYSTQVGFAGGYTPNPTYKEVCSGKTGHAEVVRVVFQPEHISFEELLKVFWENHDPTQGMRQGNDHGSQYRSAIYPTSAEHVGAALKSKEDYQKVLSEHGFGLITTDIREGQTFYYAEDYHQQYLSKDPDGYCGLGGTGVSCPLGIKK

[7] = target: Dual specificity tyrosine-phosphorylation-regulated kinase 1A (Rattus norvegicus, UniProt Q63470); format: biochemical, Homo sapiens
[8] = target: T2, Zinc finger protein mex-5 (Caenorhabditis elegans, UniProt Q9XUB2); test: potency of MEX-5 RNA-binding blockers – biochemical, C. elegans, fluorescence polarization, dose response (AID 1960)
T2 sequence (Q9XUB2 whole entry): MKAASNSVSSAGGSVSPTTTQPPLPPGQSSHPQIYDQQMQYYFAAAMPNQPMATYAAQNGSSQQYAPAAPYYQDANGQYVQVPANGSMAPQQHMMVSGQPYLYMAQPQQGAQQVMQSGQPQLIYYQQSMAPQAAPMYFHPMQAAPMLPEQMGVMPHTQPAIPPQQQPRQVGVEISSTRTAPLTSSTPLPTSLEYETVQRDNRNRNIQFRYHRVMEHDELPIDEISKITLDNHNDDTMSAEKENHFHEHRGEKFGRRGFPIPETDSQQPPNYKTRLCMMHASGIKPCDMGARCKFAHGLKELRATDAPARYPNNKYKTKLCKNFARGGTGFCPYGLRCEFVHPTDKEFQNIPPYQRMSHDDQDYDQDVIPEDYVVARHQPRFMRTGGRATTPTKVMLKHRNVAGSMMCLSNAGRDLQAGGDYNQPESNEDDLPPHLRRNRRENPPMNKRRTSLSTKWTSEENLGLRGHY

[9] = target: T3, RNA-binding protein pos-1 (Caenorhabditis elegans, UniProt G5EF15); test: disruptors of C. elegans POS-1 RNA interaction – biochemical, fluorescence polarization, dose response (AID 1964);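 note: purified POS-1 fused to maltose binding protein made in E. coli; potency of compounds blocking POS-1 binding to fluorescent RNA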
T3 sequence (G5EF15 whole entry): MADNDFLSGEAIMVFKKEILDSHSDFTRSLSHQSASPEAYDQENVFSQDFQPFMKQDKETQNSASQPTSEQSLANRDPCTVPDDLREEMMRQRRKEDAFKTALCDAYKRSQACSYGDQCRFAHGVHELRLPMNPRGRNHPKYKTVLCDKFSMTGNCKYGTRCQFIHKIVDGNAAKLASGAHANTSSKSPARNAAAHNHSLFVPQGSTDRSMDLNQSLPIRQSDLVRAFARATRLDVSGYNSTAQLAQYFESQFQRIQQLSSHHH

[10] = target: T4, Serine/threonine-protein kinase TAO1 (Homo sapiens, UniProt Q7L7X3); format: functional
T4 sequence (Q7L7X3 whole entry): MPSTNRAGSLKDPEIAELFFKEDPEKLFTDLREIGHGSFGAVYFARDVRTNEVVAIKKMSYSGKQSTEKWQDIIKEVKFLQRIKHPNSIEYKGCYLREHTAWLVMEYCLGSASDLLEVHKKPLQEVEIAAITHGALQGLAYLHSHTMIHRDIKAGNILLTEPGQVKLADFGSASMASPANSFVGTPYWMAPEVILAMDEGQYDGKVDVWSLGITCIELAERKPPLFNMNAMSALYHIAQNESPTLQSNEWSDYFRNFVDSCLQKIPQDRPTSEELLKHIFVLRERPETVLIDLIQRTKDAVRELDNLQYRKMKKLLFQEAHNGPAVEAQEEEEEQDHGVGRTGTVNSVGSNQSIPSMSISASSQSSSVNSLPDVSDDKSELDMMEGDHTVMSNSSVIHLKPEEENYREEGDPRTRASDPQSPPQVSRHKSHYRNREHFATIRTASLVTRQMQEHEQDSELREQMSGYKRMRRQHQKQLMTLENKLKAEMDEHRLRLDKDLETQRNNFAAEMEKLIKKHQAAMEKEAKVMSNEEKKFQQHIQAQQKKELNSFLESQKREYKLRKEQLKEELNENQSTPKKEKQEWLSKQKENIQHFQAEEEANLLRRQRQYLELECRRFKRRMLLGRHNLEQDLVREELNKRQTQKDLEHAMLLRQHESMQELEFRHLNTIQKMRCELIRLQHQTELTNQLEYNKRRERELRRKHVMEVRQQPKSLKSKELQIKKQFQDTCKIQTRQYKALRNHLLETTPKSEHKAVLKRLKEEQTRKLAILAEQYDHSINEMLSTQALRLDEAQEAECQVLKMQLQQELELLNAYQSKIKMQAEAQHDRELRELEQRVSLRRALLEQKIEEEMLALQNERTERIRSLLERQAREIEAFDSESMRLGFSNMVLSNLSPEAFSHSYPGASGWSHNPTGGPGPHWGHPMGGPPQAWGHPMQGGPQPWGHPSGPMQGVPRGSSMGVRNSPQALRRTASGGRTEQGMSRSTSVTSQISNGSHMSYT

[11] = target: Serine/threonine-protein kinase pim-1 (Homo sapiens, UniProt P11309); format: functional
[12] = target: Tyrosine-protein kinase Lck (Homo sapiens, UniProt P06239); format: functional;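 note: lck was assayed as one member of a kinase panel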
[13] = target: Dual specificity protein kinase CLK4 (Homo sapiens, UniProt Q9HAZ1); format: functional
[14] = target: ALK tyrosine kinase receptor (Homo sapiens, UniProt Q9UM73); format: functional;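 note: ALK tested as one member of a kinase panel screen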
[15] = target: Tyrosine-protein kinase BTK (Homo sapiens, UniProt Q06187); format: functional
[16] = target: BDNF/NT-3 growth factors receptor (Homo sapiens, UniProt Q16620); format: functional;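 note: NTRK2 measured as one member of a broad kinome-wide kinase profiling panel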
[17] = target: Tyrosine-protein kinase Fyn (Homo sapiens, UniProt P06241); format: functional
[18] = target: T5, Rac GTPase-activating protein 1 (Homo sapiens, UniProt Q9H0H5); test: blockers of MgcRacGAP-driven Rac1 GTP hydrolysis – biochemical, ADP Hunter fluorescence, primary and confirmatory, confirmation (AID 624330); format: functional
T5 sequence (Q9H0H5 whole entry): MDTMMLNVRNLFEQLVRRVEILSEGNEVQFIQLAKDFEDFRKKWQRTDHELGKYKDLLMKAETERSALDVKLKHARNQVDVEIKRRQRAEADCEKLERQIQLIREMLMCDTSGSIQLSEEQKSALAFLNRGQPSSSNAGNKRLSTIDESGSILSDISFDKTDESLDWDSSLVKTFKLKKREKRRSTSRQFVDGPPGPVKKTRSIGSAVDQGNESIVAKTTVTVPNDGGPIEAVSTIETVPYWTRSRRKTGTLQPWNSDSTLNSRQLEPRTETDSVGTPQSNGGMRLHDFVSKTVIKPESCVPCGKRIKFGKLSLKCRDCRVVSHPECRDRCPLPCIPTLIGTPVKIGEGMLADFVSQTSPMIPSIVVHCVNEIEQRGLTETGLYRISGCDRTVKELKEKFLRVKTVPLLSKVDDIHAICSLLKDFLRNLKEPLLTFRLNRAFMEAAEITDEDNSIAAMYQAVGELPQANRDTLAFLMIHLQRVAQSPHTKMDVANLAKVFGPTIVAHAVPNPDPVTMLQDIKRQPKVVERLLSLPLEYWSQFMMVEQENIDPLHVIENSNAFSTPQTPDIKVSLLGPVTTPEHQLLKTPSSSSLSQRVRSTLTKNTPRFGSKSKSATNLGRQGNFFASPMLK

Chain of Potassium voltage-gated channel subfamily KQT member 2 (O88943 whole entry, the tested form may be a part): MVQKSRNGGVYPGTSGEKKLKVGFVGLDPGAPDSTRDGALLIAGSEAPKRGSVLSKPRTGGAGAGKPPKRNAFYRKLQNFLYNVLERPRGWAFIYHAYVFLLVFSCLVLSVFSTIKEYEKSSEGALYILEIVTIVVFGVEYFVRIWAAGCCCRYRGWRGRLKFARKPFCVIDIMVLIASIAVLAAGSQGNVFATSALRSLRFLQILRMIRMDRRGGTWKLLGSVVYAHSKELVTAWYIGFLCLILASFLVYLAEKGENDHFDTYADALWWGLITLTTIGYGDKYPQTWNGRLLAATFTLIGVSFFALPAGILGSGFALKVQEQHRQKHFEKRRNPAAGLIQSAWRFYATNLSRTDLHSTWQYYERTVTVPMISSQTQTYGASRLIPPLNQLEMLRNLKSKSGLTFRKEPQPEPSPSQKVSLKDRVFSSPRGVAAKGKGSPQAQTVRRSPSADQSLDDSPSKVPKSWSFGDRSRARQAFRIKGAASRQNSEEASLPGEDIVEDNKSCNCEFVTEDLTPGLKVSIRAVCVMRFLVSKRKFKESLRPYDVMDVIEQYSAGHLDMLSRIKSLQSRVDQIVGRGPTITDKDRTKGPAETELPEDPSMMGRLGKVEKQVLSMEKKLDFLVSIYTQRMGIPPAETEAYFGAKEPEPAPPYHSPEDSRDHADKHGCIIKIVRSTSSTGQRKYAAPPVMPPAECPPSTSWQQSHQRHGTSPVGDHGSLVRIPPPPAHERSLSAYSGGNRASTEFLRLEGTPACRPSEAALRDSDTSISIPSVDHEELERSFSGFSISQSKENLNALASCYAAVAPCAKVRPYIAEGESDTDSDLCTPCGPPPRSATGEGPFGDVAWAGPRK
Chain of Tyrosine-protein kinase Fyn (P06241 whole entry): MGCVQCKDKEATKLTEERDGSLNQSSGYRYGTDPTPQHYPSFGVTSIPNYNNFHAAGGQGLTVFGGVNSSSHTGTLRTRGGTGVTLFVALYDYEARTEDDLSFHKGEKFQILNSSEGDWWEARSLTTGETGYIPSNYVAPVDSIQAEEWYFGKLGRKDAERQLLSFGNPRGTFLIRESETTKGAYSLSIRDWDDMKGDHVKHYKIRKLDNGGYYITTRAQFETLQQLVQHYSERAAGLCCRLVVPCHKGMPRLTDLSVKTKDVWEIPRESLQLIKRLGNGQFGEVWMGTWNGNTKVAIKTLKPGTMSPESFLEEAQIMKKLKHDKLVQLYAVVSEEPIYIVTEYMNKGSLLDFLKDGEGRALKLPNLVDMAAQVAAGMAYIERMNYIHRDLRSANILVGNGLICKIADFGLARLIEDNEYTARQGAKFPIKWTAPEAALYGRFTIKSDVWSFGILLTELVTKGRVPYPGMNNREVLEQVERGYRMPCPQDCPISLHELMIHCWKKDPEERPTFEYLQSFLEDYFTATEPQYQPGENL
Chain of ALK tyrosine kinase receptor (Q9UM73 whole entry): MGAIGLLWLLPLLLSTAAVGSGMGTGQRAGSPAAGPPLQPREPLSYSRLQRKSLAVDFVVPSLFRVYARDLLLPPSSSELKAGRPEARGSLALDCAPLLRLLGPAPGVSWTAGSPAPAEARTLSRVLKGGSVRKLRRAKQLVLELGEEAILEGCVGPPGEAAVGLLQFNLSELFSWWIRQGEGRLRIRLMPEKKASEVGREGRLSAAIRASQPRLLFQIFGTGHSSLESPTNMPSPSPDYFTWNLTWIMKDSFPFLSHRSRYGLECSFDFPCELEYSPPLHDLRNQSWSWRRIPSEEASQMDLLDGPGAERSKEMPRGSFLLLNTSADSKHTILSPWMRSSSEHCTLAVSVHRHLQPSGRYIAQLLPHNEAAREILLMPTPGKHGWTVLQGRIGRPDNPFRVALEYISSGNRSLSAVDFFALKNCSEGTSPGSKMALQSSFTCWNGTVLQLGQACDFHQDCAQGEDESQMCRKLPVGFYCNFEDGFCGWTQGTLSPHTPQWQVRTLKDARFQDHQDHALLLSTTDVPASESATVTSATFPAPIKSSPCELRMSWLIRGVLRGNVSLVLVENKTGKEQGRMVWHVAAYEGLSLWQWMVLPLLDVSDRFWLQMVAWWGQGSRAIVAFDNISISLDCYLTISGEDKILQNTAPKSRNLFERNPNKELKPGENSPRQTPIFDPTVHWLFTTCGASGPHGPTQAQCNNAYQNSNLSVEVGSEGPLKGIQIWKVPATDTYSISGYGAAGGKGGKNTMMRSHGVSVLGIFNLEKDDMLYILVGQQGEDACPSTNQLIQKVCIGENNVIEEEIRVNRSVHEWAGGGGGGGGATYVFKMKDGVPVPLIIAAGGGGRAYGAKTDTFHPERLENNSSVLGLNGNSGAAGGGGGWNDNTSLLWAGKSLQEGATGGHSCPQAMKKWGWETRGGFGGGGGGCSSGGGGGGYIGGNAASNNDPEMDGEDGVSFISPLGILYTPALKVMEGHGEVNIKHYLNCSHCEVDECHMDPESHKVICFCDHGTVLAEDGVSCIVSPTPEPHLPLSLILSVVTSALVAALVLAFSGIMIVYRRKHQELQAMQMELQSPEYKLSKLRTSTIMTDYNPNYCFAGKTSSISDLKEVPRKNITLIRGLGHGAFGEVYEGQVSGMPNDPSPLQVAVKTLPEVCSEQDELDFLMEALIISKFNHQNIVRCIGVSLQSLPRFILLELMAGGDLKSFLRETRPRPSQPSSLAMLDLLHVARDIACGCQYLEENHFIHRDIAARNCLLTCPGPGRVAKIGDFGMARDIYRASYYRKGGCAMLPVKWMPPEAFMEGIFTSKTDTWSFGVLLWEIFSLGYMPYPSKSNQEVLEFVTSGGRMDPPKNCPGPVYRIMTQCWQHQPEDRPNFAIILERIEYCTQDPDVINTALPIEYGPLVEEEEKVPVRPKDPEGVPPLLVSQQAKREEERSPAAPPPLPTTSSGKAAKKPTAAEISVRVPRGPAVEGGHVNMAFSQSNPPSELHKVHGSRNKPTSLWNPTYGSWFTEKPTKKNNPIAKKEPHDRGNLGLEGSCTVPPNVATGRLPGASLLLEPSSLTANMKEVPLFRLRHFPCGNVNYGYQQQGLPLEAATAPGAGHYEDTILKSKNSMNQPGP
Chain of Dual specificity protein phosphatase 3 (P51452 whole entry): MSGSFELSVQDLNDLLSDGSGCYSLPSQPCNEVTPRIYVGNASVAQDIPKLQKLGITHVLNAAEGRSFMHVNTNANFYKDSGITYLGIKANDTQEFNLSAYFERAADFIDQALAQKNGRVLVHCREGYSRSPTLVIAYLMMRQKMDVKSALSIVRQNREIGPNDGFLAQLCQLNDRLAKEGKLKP
Chain of BDNF/NT-3 growth factors receptor (Q16620 whole entry): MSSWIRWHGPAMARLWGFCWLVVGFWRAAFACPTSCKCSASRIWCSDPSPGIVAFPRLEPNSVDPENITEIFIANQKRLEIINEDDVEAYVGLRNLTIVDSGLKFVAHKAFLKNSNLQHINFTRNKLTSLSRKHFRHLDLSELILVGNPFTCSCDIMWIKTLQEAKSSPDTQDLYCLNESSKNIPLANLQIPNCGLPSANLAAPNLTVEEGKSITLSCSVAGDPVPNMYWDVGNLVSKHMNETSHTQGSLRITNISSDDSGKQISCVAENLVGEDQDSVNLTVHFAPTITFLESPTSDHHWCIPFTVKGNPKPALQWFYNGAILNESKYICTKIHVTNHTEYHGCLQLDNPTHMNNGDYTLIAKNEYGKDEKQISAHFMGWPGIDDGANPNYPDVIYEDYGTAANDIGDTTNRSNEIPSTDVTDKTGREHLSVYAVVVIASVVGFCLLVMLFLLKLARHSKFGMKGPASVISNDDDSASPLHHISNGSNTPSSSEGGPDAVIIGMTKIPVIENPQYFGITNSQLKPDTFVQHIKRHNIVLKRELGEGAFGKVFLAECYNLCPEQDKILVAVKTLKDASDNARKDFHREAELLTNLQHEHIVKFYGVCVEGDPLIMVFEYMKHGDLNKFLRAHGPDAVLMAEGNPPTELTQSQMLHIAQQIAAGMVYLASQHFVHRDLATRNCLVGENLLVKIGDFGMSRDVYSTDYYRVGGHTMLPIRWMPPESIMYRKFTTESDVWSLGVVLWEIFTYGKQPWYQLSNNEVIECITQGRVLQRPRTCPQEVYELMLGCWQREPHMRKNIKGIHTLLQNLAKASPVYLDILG
Chain of Tyrosine-protein phosphatase non-receptor type 5 (P54829 whole entry): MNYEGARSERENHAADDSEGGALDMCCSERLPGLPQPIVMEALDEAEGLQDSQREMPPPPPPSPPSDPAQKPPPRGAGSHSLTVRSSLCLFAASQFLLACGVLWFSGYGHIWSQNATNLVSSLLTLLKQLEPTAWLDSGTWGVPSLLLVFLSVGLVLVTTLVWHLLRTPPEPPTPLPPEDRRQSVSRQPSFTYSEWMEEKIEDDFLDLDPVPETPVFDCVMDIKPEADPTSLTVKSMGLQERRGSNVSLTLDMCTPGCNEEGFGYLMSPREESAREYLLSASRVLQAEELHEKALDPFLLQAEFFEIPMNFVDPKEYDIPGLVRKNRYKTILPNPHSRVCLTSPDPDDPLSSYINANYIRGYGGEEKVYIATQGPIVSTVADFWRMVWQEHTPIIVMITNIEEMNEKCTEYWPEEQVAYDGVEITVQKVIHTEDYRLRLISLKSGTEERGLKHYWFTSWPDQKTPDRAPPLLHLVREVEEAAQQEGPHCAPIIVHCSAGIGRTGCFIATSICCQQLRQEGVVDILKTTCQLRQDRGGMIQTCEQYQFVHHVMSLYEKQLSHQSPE
Chain of Serine/threonine-protein kinase pim-1 (P11309 whole entry): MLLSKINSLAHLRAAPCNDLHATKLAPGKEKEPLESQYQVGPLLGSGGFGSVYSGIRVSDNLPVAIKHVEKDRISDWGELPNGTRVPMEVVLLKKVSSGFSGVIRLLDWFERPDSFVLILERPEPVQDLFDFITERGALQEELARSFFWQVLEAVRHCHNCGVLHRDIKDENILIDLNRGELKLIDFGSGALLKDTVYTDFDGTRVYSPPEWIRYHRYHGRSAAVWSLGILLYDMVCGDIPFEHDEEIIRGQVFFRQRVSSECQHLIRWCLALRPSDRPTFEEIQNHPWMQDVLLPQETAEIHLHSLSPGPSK

Compound: FC(F)(F)c1cnc(-c2cnc(-c3ccccn3)nc2)c(Cl)c1
AC50 [5]: 75.3 µM (active)

Compound: O=C1c2ccccc2C(=O)c2[nH]cnc21
EC50 [6]: > 104 µM (inactive)
AC50 [7]: 7.57 µM (active)
EC50 [8]: 85.6 µM (active)
EC50 [9]: > 300 µM (not active)

Compound: Nc1nc(=S)ss1
EC50 [6]: 10.3 µM (inactive)
IC50 [18]: 301 µM (active)

More lines, now with the values ahead:

IC50 [1]: 1.56 µM (active)
IC50 [2]: 28.4 µM (inactive)
IC50 [3]: 4.3 µM (active)
Compound: CCOC(=O)c1c(NC(=O)OC)sc(C(=O)N(CC)CC)c1C

IC50 [4]: 4.2 µM (active)
Compound: Cc1ccc2c(C)c(C(=O)N3CCN(c4ncccn4)CC3)oc2c1C

IC50 [4]: 4.81 µM (active)
Compound: COc1ccc(Nc2ccccc2NC(=O)c2ccccc2Br)cc1

Ki [10]: > 6.31 µM (inactive)
Ki [11]: > 6.31 µM (inactive)
Ki [12]: > 6.31 µM (inactive)
Ki [13]: 1.26 µM (active)
Ki [14]: > 6.31 µM (inactive)
Ki [15]: > 6.31 µM (inactive)
Ki [16]: 0.631 µM (active)
Ki [17]: > 6.31 µM (inactive)
Compound: O=C(Nc1ccccc1N1CCCC1)c1ccc2ccccc2n1
